Earlier results, collected in patent publication US8486621B2, “Nucleic acid-based matrixes” (Cornell Research Foundation, Inc., priority 2005, dated 2013).

How the values were obtained:
[1] = test system: major and minor grooves of the DNA molecules
[2] = test system: plasma glucose, insulin, and triglyceride levels; conditions: in vivo
PPAR-gamma = molecular target: T1, PPAR-gamma (Homo sapiens, UniProt P37231); conditions: context-specific, some cell types
T1 sequence (P37231 1-505): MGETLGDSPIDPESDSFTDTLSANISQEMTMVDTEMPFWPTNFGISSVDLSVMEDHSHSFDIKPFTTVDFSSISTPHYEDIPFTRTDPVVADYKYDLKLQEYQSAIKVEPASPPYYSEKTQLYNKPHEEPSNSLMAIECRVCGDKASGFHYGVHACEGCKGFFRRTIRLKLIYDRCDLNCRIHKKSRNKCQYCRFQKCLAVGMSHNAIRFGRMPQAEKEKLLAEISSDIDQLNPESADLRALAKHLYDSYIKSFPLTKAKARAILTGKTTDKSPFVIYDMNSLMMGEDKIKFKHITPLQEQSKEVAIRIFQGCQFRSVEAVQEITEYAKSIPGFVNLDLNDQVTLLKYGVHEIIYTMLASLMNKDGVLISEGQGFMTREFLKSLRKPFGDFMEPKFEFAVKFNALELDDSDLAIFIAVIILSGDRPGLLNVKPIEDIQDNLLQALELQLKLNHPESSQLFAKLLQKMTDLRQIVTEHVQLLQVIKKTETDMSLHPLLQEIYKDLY

Structure (SMILES) | affinity to DNA [1] | efficacy in lowering plasma glucose, insulin, and triglyceride levels [2] | potency relative to rosiglitazone [2] | mode of action at PPAR-gamma (PPAR-gamma)
CC[C@@]1(O)C(=O)OCc2c1cc1n(c2=O)Cc2cc3ccccc3nc2-1 [CPT, (S)-(+)-camptothecin] | high affinity | – | – | –
O=C1NC(=O)C(Cc2ccc3cc(OCc4ccccc4F)ccc3c2)S1 (stereo not shown) [netoglitazone, 5-[{6-(2-fluorobenzyl)oxy-2-naphthyl}methyl]-2,4-thiazolidinedione] | – | more efficacious than pioglitazone and troglitazone | about three-fold more potent than rosiglitazone | full agonist of PPAR-gamma and as a partial agonist or antagonist in others
